Data reported in US20260184707A1, “PHARMACEUTICAL COMPOUNDS FOR THE TREATMENT OF COMPLEMENT MEDIATED DISORDERS” (ALEXION PHARMACEUTICALS, INC., priority 2022, published 2026).

Target: T1, Human complement C1s enzyme (Homo sapiens, UniProt P09871)
T1 construct: purified from human serum, Complement Technology, Inc; purchased Complement Technology, Inc; host or cells: human serum (plasma-derived native protein)
T1 sequence (P09871 438-688 limits assumed): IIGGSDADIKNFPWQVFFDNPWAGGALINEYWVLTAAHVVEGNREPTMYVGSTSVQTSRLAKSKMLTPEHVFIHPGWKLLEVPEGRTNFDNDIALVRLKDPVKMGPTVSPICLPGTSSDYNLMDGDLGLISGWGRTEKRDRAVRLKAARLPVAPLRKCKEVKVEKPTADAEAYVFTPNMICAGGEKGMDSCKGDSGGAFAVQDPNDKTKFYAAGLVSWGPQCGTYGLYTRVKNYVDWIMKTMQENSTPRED
T1 sequence (P09871 16-437 partner limits assumed): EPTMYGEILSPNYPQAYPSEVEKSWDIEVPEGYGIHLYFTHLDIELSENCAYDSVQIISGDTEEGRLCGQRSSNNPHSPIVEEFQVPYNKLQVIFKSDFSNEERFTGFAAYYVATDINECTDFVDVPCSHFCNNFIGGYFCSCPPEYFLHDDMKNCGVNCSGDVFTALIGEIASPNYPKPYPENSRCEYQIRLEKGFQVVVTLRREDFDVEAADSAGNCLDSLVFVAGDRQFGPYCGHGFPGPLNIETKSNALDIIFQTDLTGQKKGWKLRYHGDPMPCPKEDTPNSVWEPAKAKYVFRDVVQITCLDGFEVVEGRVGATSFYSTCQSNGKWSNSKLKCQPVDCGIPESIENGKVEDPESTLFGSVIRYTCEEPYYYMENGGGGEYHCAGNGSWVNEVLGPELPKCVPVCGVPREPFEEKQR
Assay: Human C1s enzyme assay
Type: biochemical
Conditions: human complement C1s enzyme 1.16 nM, substrate Z-L-Lys-SBzl, A405; read-out: IC50 (Stars)
Procedure: The […] values of the compounds of Table 1 were determined with the human C1s enzyme assay described below. Other standard complement assays are also available.
Human complement C1s enzyme (purified from human serum, Complement Technology, Inc.) at 1.16 nM final concentration was incubated with test compound at various concentrations for 5 min at room temperature in 50 mM Tris, 1 M NaCl, pH 7.5. A synthetic substrate Z-L-Lys-SBzl and DTNB (Ellman's reagent) were added to final concentrations of 100 μM each. Absorbance at 405 nm (A405) was recorded at 30 second intervals for […] using a microplate spectrophotometer. IC values were calculated by nonlinear regression of complement C1s reaction rates as a function of test compound concentration.
[…]; ND indicates a compound for which the IC50 value is not determined.

Row | SMILES | IC50 [nM]
1 | O=C(Cn1c(-c2ccccc2)ncc(NC(=O)c2ccc(Oc3ccccc3)cc2)c1=O)NCc1cc2cnccc2[nH]1 [Compound 8, N-(1-(2-(((1H-pyrrolo[3,2-c]pyridin-2-yl)methyl)amino)-2-oxoethyl)-6-oxo-2-phenyl-1,6-dihydropyrimidin-5-yl)-4-phenoxybenzamide] | < 100
2 | C[C@H](NC(=O)Cn1c(-c2ccccc2)ncc(NCCCc2ccccc2)c1=O)c1cc2cnccc2[nH]1 [Compound 9, (S)—N-(1-(1H-pyrrolo[3,2-c]pyridin-2-yl)ethyl)-2-(6-oxo-2-phenyl-5-((3-phenylpropyl)amino)pyrimidin-1(6H)-yl)acetamide] | > 1000
3 | C[C@@H](NC(=O)Cn1c(-c2ccccc2)ncc(NCCCc2ccccc2)c1=O)c1cc2cnccc2[nH]1 [Compound 10, (R)-N-(1-(1H-pyrrolo[3,2-c]pyridin-2-yl)ethyl)-2-(6-oxo-2-phenyl-5-((3-phenylpropyl)-amino)pyrimidin-1(6H)-yl)-acetamide] | < 100
4 | O=C(Cn1c(-c2ccccc2)ncc(NCCCCOc2ccccc2)c1=O)NCc1cc2cnccc2[nH]1 [Compound 11, N-((1H-pyrrolo[3,2-c]pyridin-2-yl)methyl)-2-(6-oxo-5-((4-phenoxybutyl)amino)-2-phenylpyrimidin-1(6H)-yl)acetamide] | < 100
5 | C[C@@H](NC(=O)Cn1c(-c2ccccc2)cnc(NCCCc2ccccc2)c1=O)c1cc2cnccc2[nH]1 [Compound 12, (R)-N-(1-(1H-pyrrolo[3,2-c]pyridin-2-yl)ethyl)-2-(2-oxo-6-phenyl-3-((3-phenylpropyl)-amino)pyrazin-1(2H)-yl)-acetamide] | 100 to 1000
6 | O=C(Cn1c(-c2ccccc2)cnc(NCCCc2ccccc2)c1=O)N[C@H](CO)c1cc2cnccc2[nH]1 [Compound 13, (S)-N-(2-hydroxy-1-(1H-pyr-rolo[3,2-c]pyridin-2-yl)ethyl)-2-(2-oxo-6-phenyl-3-((3-phen-ylpropyl)amino)pyrazin-1(2H)-yl)acetamide] | 100 to 1000
7 | O=C(Cn1c(-c2ccccc2)cnc(NCCCc2ccccc2)c1=O)N[C@@H](CO)c1cc2cnccc2[nH]1 [Compound 14, (R)-N-(2-hydroxy-1-(1H-pyr-rolo[3,2-c]pyridin-2-yl)ethyl)-2-(2-oxo-6-phenyl-3-((3-phen-ylpropyl)amino)pyrazin-1(2H)-yl)acetamide] | > 1000
8 | O=C(Cn1c(-c2ccccc2)ncc(NCCCc2ccccc2)c1=O)N[C@H](CO)c1cc2cnccc2[nH]1 [Compound 15, (S)-N-(2-hydroxy-1-(1H-pyr-rolo[3,2-c]pyridin-2-yl)ethyl)-2-(6-oxo-2-phenyl-5-((3-phen-ylpropyl)amino)pyrimidin-1(6H)-yl)acetamide] | > 1000
9 | O=C(Cn1c(-c2ccccc2)ncc(NCCCc2ccccc2)c1=O)N[C@@H](CO)c1cc2cnccc2[nH]1 [Compound 16, (R)-N-(2-hydroxy-1-(1H-pyr-rolo[3,2-c]pyridin-2-yl)ethyl)-2-(6-oxo-2-phenyl-5-((3-phen-ylpropyl)amino)pyrimidin-1(6H)-yl)acetamide] | > 1000
10 | O=C(Cn1c(-c2ccccc2)cnc(NCCCc2ccccc2)c1=O)NCc1cc2cnccc2[nH]1 [Compound 17, N-((1H-pyrrolo[3,2-c]pyridin-2-yl)methyl)-2-(2-oxo-6-phen-yl-3-((3-phenylpropyl)amino)-pyrazin-1(2H)-yl)acetamide] | < 100
11 | O=C(Cn1c(-c2ccccc2)ncc(NC(=O)CCCc2ccc(Oc3ccccc3)cc2)c1=O)NCc1cc2cnccc2[nH]1 [Compound 18, N-(1-(2-(((1H-pyrrolo[3,2-c]pyridin-2-yl)methyl)amino)-2-oxoethyl)-6-oxo-2-phenyl-1,6-dihydropyrimidin-5-yl)-4-(4-phenoxyphenyl)butanamide] | < 100
12 | O=C(Cn1c(-c2ccccc2)ncc(NCc2ccc(-c3ccccc3)cc2)c1=O)NCc1cc2cnccc2[nH]1 [Compound 19, N-((1H-pyrrolo[3,2-c]pyridin-2-yl)methyl)-2-(5-(([1,1′-biphenyl]-4-ylmethyl)amino)-6-oxo-2-phenylpyrimidin-1(6H)-yl)acetamide] | < 100
